Active and inactive are the calls of the source. The rule behind the calls is not given here.
Assays:
[1] = molecular target: Melatonin receptor (Gallus gallus, UniProt P49288+P51050+P49285); assay: Binding affinity towards melatonin receptor was determined using 2-[125I]iodomelatonin as radioligand in chick brain membranes; format: cell membranes, Membrane
[2] = species on record: Xenopus laevis; assay: Agonistic activity was determined in a pigment aggregation model using cultured melanophores isolated from the neural crest of Xenopus laevis embryos; partial agonist; format: functional; settings: frog; filed as partial agonist
[3] = species on record: Xenopus laevis; assay: Agonistic activity was determined in a pigment aggregation model using cultured melanophores isolated from the neural crest of Xenopus laevis embryos; format: functional, frog
[4] = species on record: Xenopus laevis; assay: Agonistic activity was determined in a pigment aggregation model using cultured melanophores isolated from the neural crest of Xenopus laevis embryos.; format: functional; settings: frog; filed as agonist
[5] = species on record: Xenopus laevis; assay: Agonistic activity was determined in a pigment aggregation model using cultured melanophores isolated from the neural crest of Xenopus laevis embryos; mixed; format: functional; settings: frog; filed as partial agonist
[6] = species on record: Xenopus laevis; assay: Agonistic activity was determined in a pigment aggregation model using cultured melanophores isolated from the neural crest of Xenopus laevis embryos; inactive; format: functional; settings: frog

Ki [1] [nM] | Compound | Activity [4] | other results
436 | CCC(=O)NC1CCc2[nH]c3ccccc3c2C1 (stereo not given) | – | Activity [2]: Partial agonist; EC50 [3]: > 10000 nM
740 | O=C(CBr)NC1CCc2[nH]c3ccccc3c2C1 (stereo not given) | – | Activity [2]: Partial agonist; EC50 [3]: < 1000 nM
41 | CCC(=O)NC1CCc2[nH]c3ccc(OC)cc3c2C1 (stereo not given) | – | –
> 10000 | CCC(Br)C(=O)NC1CCc2[nH]c3ccccc3c2C1 (stereo not given) | – | –
5350 | CC(=O)NC1CCc2[nH]c3ccccc3c2C1 (stereo not given) | – | –
8.3 | COc1ccc2[nH]c3c(c2c1)CC(NC(=O)CBr)CC3 (stereo not given) | – | Activity [5]: Partial agonist
560 | CCCC(=O)NC1CCc2[nH]c3ccc(OC)cc3c2C1 (stereo not given) | Agonist | EC50 [3]: 10000 nM
1060 | CCCC(=O)NC1CCc2[nH]c3ccccc3c2C1 (stereo not given) | – | Activity [6]: inactive
219 | COc1ccc2[nH]c3c(c2c1)CC(NC(C)=O)CC3 (stereo not given) | Agonist | –
4630 | O=C(NC1CCc2[nH]c3ccccc3c2C1)C(F)(F)F (stereo not given) | – | –
215 | CCCC(=O)NC1CCCc2c1c1ccccc1n2C (stereo not given) | Agonist | –

Continued, compound first:

Compound | Ki [1] [nM] | Activity [4] | other results
COc1ccc2c(c1)c(CCNC(C)=O)cn2C | 254 | – | –
CCCC(=O)NC1CCCc2c1c1cc(OC)ccc1n2C (stereo not given) | 0.378 | Agonist | EC50 [3]: 2.5 nM
CC(=O)NC1CCCc2c1c1ccccc1n2C (stereo not given) | 227 | Agonist | –
CCC(=O)NC1CCCc2c1c1ccccc1n2C (stereo not given) | 204 | Agonist | –
COc1ccc2[nH]c3c(c2c1)CC(NC(=O)C1CC1)CC3 (stereo not given) | 570 | Agonist | –
COc1ccc2c(c1)c1c(n2C)CCCC1NC(C)=O (stereo not given) | 0.97 | Agonist | –
COc1ccc2c(c1)c1c(n2C)CCCC1NC(=O)C1CC1 (stereo not given) | 30 | Agonist | –
CCCCC(=O)NC1CCCc2c1c1cc(OC)ccc1n2C (stereo not given) | 82 | Agonist | –
CCC(=O)NC1CCCc2c1c1cc(OC)ccc1n2C (stereo not given) | 1.44 | Agonist | –
Cn1c2c(c3ccccc31)C(NC(=O)C1CC1)CCC2 (stereo not given) | 4460 | Agonist | –
Cn1c2c(c3ccccc31)C(NC(=O)C(F)(F)F)CCC2 (stereo not given) | 766 | Agonist | –
COc1ccc2c(c1)c1c(n2C)CCCC1NC(=O)C1CCC1 (stereo not given) | 271 | Agonist | –
COc1ccc2[nH]c3c(c2c1)CC(NC(=O)C(F)(F)F)CC3 (stereo not given) | 102 | – | –
CCCCC(=O)NC1CCCc2c1c1ccccc1n2C (stereo not given) | > 10000 | Agonist | –
COc1ccc2c(c1)c1c(n2C)CCCC1NC(=O)C(F)(F)F (stereo not given) | 1.98 | Agonist | –

Reference: ChEMBL document CHEMBL1127919 (Bioorg Med Chem Lett, 1994)
